Assay results as given in ChEMBL document CHEMBL4130394, “Novel 6-substituted benzoyl and non-benzoyl straight chain pyrrolo[2,3-d]pyrimidines as potential antitumor agents with multitargeted inhibition of TS, GARFTase and AICARFTase” (Eur J Med Chem, 2017).
The source made the active and inactive calls. No cut-off for these calls is given here.

Columns and labels:
KB [1] = assay: Cell cycle arrest in human KB cells assessed as accumulation at G2 phase at 5 uM after 96 hrs by propidium iodide staining based flow cytometry (reference value: 9.59%); assay type: functional
KB [2] = assay: Cell cycle arrest in human KB cells assessed as accumulation at S phase at 5 uM after 96 hrs by propidium iodide staining based flow cytometry (reference value: 35.66%); assay type: functional
KB [3] = assay: Cell cycle arrest in human KB cells assessed as accumulation at G1 phase at 5 uM after 96 hrs by propidium iodide staining based flow cytometry (reference value: 54.75%); assay type: functional
KB [4] = assay: Cell cycle arrest in human KB cells assessed as accumulation at G1 phase at 1 uM after 96 hrs by propidium iodide staining based flow cytometry (reference value: 54.75%); assay type: functional
[5] = target: T1, Thymidylate synthase/GAR transformylase/AICAR transformylase (Homo sapiens, UniProt P04818+P31939+P22102); assay: Inhibition of TS/AICARFTase/GARFTase in human KB cells assessed as reduction in cell proliferation in folate free medium after 72 hrs in presence of leucovorin by MTT assay; assay type: cell-based
[6] = target: T2, Thymidylate synthase/AICAR transformylase (Homo sapiens) (UniProt P04818+P31939); assay: Inhibition of TS/AICARFTase in human KB cells assessed as reduction in cell proliferation at 1 to 10 nM after 72 hrs in presence of excess of thymidine and AICA by MTT assay; assay type: cell-based
KB [7] = assay: Cell cycle arrest in human KB cells assessed as accumulation at G2 phase at 1 uM after 96 hrs by propidium iodide staining based flow cytometry (reference value: 9.59%); assay type: functional
[8] = target: T3, Bifunctional purine biosynthesis protein ATIC (Homo sapiens, UniProt P31939); assay: Inhibition of AICARFTase in human KB cells assessed as reduction in cell proliferation at 1 to 10 nM after 72 hrs in presence of excess of AICA by MTT assay; assay type: cell-based
Target sequence in this assay (P31939 whole entry, looked up): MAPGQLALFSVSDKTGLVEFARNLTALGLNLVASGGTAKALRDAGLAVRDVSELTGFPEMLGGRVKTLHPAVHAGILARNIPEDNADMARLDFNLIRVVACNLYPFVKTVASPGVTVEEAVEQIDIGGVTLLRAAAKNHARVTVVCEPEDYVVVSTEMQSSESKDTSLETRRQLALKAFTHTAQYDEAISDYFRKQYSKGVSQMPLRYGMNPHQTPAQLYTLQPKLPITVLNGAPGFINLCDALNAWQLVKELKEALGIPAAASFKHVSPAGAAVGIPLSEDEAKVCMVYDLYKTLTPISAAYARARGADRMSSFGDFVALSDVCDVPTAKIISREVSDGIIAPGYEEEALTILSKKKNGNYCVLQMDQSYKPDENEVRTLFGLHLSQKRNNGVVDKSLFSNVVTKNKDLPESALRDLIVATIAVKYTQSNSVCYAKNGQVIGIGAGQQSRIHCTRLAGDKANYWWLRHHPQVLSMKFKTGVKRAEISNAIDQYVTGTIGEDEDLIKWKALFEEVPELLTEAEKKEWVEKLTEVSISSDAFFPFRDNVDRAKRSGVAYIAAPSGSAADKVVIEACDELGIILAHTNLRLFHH

KB [9] = assay: Induction of apoptosis in human KB cells assessed as early apoptotic cells at 1 uM after 48 hrs by Annexin V-FITC/propidium iodide staining based flow cytometry (reference value: 16.9%); assay type: functional
KB [10] = assay: Induction of apoptosis in human KB cells assessed as live cells at 1 uM after 48 hrs by Annexin V-FITC/propidium iodide staining based flow cytometry (reference value: 74.6%); assay type: functional
KB [11] = assay: Induction of apoptosis in human KB cells assessed as late apoptotic cells at 1 uM after 48 hrs by Annexin V-FITC/propidium iodide staining based flow cytometry (reference value: 5.5%); assay type: functional
MCF7 = assay: Antiproliferative activity against human MCF7 cells in folate free medium after 72 hrs in presence of leucovorin by MTT assay; assay type: functional, cell-based; details: MCF7, 72 h
KB [12] = assay: Cell cycle arrest in human KB cells assessed as accumulation at S phase at 1 uM after 96 hrs by propidium iodide staining based flow cytometry (reference value: 35.66%); assay type: functional
SW-620 = assay: Antiproliferative activity against human SW620 cells in folate free medium after 72 hrs in presence of leucovorin by MTT assay; assay type: functional, cell-based; details: SW-620, 72 h
KB [13] = assay: Inhibition of colony formation in human KB cells at 100 nM after 10 to 14 days by methylene blue staining based assay relative to control; assay type: functional
KB [14] = assay: Induction of apoptosis in human KB cells assessed as necrotic cells at 1 uM after 48 hrs by Annexin V-FITC/propidium iodide staining based flow cytometry (reference value: 3%); assay type: functional
[15] = target: T3, Bifunctional purine biosynthesis protein ATIC; assay: Inhibition of AICARFTase in human KB cells assessed as reduction in cell proliferation up to 1 uM after 72 hrs in presence of excess of AICA by MTT assay; assay type: cell-based
Target sequence in this assay (P31939 whole entry, looked up): as above

[16] = target: T2, Thymidylate synthase/AICAR transformylase (Homo sapiens); assay: Inhibition of TS/AICARFTase in human KB cells assessed as reduction in cell proliferation up to 1 uM after 72 hrs in presence of excess of thymidine and AICA by MTT assay; assay type: cell-based
[17] = target: GAR transformylase/AICAR transformylase (Homo sapiens) (UniProt P31939+P22102); assay: Inhibition of AICARFTase/GARFTase in human KB cells assessed as reduction in cell proliferation up to 1 uM after 72 hrs in presence of excess of adenosine by MTT assay; assay type: cell-based
[18] = target: T1, Thymidylate synthase/GAR transformylase/AICAR transformylase; assay: Inhibition of TS/AICARFTase/GARFTase in human KB cells assessed as reduction in cell proliferation up to 1 uM after 72 hrs in presence of excess of thymidine and adenosine by MTT assay; assay type: cell-based
[19] = target: Thymidylate synthase (Homo sapiens) (UniProt P04818); assay: Inhibition of thymidylate synthase in human KB cells assessed as reduction in cell proliferation up to 1 uM after 72 hrs in presence of excess of thymidine by MTT assay; assay type: cell-based
[20] = target: T3, Bifunctional purine biosynthesis protein ATIC; assay: Inhibition of recombinant human AICARFTase using AICAR as substrate incubated at 37 degC for 30 mins measured after overnight incubation at 4 degC
Target sequence in this assay (P31939 whole entry): as the sequence (P31939 whole entry, looked up) above

KB [21] = assay: Potency index, ratio of methotrexate IC50 to compound IC50 for human KB cells; assay type: functional
KB [22] = assay: Potency index, ratio of pemetrexed IC50 to compound IC50 for human KB cells; assay type: functional
KB [23] = assay: Induction of apoptosis in human KB cells assessed as late apoptotic cells at 10 uM after 48 hrs by Annexin V-FITC/propidium iodide staining based flow cytometry (reference value: 5.5%); assay type: functional
KB [24] = assay: Cell cycle arrest in human KB cells assessed as accumulation at S phase at 10 uM after 96 hrs by propidium iodide staining based flow cytometry (reference value: 35.66%); assay type: functional
KB [25] = assay: Induction of apoptosis in human KB cells assessed as necrotic cells at 10 uM after 48 hrs by Annexin V-FITC/propidium iodide staining based flow cytometry (reference value: 3%); assay type: functional
KB [26] = assay: Cell cycle arrest in human KB cells assessed as accumulation at G2 phase at 10 uM after 96 hrs by propidium iodide staining based flow cytometry (reference value: 9.59%); assay type: functional
KB [27] = assay: Induction of apoptosis in human KB cells assessed as early apoptotic cells at 10 uM after 48 hrs by Annexin V-FITC/propidium iodide staining based flow cytometry (reference value: 16.9%); assay type: functional
KB [28] = assay: Induction of apoptosis in human KB cells assessed as live cells at 10 uM after 48 hrs by Annexin V-FITC/propidium iodide staining based flow cytometry (reference value: 74.6%); assay type: functional
KB [29] = assay: Cell cycle arrest in human KB cells assessed as accumulation at G1 phase at 10 uM after 96 hrs by propidium iodide staining based flow cytometry (reference value: 54.75%); assay type: functional

T2 sequence (P04818 whole entry, looked up): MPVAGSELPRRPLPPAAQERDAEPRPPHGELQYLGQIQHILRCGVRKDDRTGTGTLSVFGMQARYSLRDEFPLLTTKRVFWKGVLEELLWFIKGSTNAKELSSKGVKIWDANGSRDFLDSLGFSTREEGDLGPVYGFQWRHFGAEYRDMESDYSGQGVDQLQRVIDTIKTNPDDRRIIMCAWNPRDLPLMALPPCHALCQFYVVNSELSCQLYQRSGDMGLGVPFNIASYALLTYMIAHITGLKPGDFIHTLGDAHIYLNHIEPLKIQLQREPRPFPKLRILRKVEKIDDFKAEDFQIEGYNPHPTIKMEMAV
T2 sequence (P31939 whole entry, looked up): as the sequence (P31939 whole entry, looked up) above
GAR transformylase/AICAR transformylase (Homo sapiens), sequence (P22102 whole entry, looked up): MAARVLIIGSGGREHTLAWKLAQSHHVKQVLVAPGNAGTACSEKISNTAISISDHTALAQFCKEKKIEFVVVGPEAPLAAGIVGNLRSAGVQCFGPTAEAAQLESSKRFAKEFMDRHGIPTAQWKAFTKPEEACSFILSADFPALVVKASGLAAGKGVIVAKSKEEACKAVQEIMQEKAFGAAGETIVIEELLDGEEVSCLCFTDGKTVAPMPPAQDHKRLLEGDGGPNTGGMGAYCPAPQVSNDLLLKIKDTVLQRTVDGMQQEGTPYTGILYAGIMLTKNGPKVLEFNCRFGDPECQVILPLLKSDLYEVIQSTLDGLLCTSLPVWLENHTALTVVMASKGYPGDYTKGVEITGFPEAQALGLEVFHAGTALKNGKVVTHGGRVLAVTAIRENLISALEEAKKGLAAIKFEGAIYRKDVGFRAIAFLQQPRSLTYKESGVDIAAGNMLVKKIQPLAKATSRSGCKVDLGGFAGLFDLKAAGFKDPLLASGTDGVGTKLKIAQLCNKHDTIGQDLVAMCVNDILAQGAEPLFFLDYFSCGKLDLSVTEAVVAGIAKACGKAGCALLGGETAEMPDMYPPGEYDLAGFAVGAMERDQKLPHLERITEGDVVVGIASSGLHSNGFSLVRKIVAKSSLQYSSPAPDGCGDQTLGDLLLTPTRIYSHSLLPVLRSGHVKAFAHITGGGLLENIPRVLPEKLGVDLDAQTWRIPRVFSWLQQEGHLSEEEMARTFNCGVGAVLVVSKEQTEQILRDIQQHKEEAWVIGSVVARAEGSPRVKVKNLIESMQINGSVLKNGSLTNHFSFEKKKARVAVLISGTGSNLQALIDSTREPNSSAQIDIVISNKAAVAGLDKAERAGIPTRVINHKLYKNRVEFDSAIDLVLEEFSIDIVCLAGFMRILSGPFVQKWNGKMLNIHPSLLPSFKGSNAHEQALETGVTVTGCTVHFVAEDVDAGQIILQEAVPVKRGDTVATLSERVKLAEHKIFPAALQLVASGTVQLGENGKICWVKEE
GAR transformylase/AICAR transformylase (Homo sapiens), sequence (P31939 whole entry, looked up): as the sequence (P31939 whole entry, looked up) above
Thymidylate synthase (Homo sapiens), sequence (P04818 2-313 limits assumed): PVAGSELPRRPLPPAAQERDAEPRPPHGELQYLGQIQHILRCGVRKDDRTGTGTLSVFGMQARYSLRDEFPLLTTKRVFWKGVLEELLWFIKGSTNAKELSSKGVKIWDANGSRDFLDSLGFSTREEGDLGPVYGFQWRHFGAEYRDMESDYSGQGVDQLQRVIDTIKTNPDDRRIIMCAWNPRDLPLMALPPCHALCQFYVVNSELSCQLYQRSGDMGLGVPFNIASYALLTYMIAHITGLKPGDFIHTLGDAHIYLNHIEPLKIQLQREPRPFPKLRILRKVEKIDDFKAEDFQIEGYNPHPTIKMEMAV
T1 sequence (P04818 whole entry, looked up): as the sequence (P04818 whole entry, looked up) above
T1 sequence (P22102 whole entry, looked up): as the sequence (P22102 whole entry, looked up) above
T1 sequence (P31939 whole entry, looked up): as the sequence (P31939 whole entry, looked up) above

Question: For `COc1cc([C@@H]2c3cc4c(cc3[C@@H](O[C@@H]3O[C@@H]5CO[C@@H](C)O[C@H]5[C@H](O)[C@H]3O)[C@H]3COC(=O)[C@H]23)OCO4)cc(OC)c1O` [ETOPOSIDE], which Activity (KB [1]) is on record?
Answer: Its Activity is 3.19%.

Question: And the Activity (KB [2])?
Answer: The Activity was 0%.

Question: And the Activity (KB [3])?
Answer: The Activity was 96.81%.

Question: Which Activity (KB [4]) does the source give for `Nc1nc2[nH]c(CC(=O)Nc3ccc(C(=O)N[C@@H](CCC(=O)O)C(=O)O)cc3)cc2c(=O)[nH]1` here?
Answer: Its Activity is 31.38%.

Question: And the IC50 [5]?
Answer: The IC50 was 7.5 ×10⁻³ microM.

Question: What about the inhibition [6] of the same molecule?
Answer: The inhibition was “Active”.

Question: And the Activity (KB [7])?
Answer: The Activity was 0%.

Question: What about the inhibition [8] of the same molecule?
Answer: Its inhibition is “Active”.

Question: And the Activity (KB [9])?
Answer: Its Activity is 36.2%.

Question: And the Activity (KB [10])?
Answer: Its Activity is 55.4%.

Question: And the Activity (KB [11])?
Answer: Its Activity is 7.1%.

Question: What about the IC50 (MCF7) of the same molecule?
Answer: Its IC50 is 1130 nM.

Question: What about the Activity (KB [12]) of the same molecule?
Answer: Its Activity is 68.62%.

Question: And the IC50 (SW-620)?
Answer: Its IC50 is 977 nM.

Question: What about the inhibition at 0.1 µM (KB [13]) of the same molecule?
Answer: Its inhibition at 0.1 µM is over 80%.

Question: And the Activity (KB [14])?
Answer: The Activity was 1.3%.

Question: How did the IC50 [5] turn out when `Nc1nc2[nH]c(CC(=O)NCCC(=O)N[C@@H](CCC(=O)O)C(=O)O)cc2c(=O)[nH]1` was run?
Answer: Its IC50 is 0.092 µM.

Question: What about the IC50 (MCF7) of the same molecule?
Answer: Its IC50 is 2380 nM.

Question: What about the IC50 (SW-620) of the same molecule?
Answer: The IC50 was 1100 nM.

Question: Which results are given for `CN(Cc1cnc2nc(N)nc(N)c2n1)c1ccc(C(=O)N[C@@H](CCC(=O)O)C(=O)O)cc1` [METHOTREXATE]?
Answer: IC50 (MCF7): 97 nM; IC50 (SW-620): 22 nM

Question: Which results are given for `Nc1nc2[nH]c(CC(=O)NCCCCCC(=O)N[C@@H](CCC(=O)O)C(=O)O)cc2c(=O)[nH]1`?
Answer: inhibition [15]: Active; IC50 [5]: 1.4 ×10⁻⁴ microM; inhibition [16]: Active; inhibition [17]: inactive; inhibition [18]: inactive; inhibition [19]: inactive; IC50 (MCF7): 1080 nM; IC50 (SW-620): 563 nM

Question: What does the source list for `Nc1nc2[nH]c(CC(=O)NCCCCC(=O)N[C@@H](CCC(=O)O)C(=O)O)cc2c(=O)[nH]1`?
Answer: IC50 [5]: 0.043 µM; IC50 (MCF7): 3810 nM; IC50 (SW-620): 1140 nM

Question: With `Nc1nc2ccc(S(=O)(=O)Nc3ccc(C(=O)N[C@@H](CCC(=O)O)C(=O)O)cc3)cc2c(=O)[nH]1` as the molecule, how does the Ki [20] read?
Answer: The Ki was 8 nM.

Question: For `Nc1nc2[nH]c(CC(=O)NCC(=O)N[C@@H](CCC(=O)O)C(=O)O)cc2c(=O)[nH]1`, which inhibition [15] is on record?
Answer: The inhibition was “Active”.

Question: And the Activity (KB [4])?
Answer: The Activity was 52.6%.

Question: And the IC50 [5]?
Answer: Its IC50 is 7.8 ×10⁻⁵ uM.

Question: And the Activity (KB [7])?
Answer: The Activity was 2.43%.

Question: And the inhibition [16]?
Answer: The inhibition was “Active”.

Question: What about the “Ratio IC50” value (KB [21]) of the same molecule?
Answer: Its value is 140.

Question: And the inhibition [17]?
Answer: Its inhibition is “inactive”.

Question: And the Activity (KB [9])?
Answer: Its Activity is 35.4%.

Question: What about the Activity (KB [10]) of the same molecule?
Answer: Its Activity is 57.9%.

Question: What about the inhibition [18] of the same molecule?
Answer: Its inhibition is “inactive”.

Question: What about the Activity (KB [11]) of the same molecule?
Answer: The Activity was 6.4%.

Question: What about the inhibition [19] of the same molecule?
Answer: The inhibition was “inactive”.

Question: And the IC50 (MCF7)?
Answer: Its IC50 is 913 nM.

Question: And the Activity (KB [12])?
Answer: Its Activity is 44.96%.

Question: And the IC50 (SW-620)?
Answer: Its IC50 is 786 nM.

Question: And the inhibition at 0.1 µM (KB [13])?
Answer: The inhibition at 0.1 µM was over 90%.

Question: And the “Ratio IC50” value (KB [22])?
Answer: The value was 1000.

Question: What about the Activity (KB [14]) of the same molecule?
Answer: Its Activity is 0.3%.

Question: For `Nc1nc2[nH]cc(CCc3ccc(C(=O)N[C@@H](CCC(=O)O)C(=O)O)cc3)c2c(=O)[nH]1` [PEMETREXED], which Activity (KB [23]) is on record?
Answer: Its Activity is 21.8%.

Question: What about the Activity (KB [24]) of the same molecule?
Answer: The Activity was 38.05%.

Question: What about the Activity (KB [25]) of the same molecule?
Answer: The Activity was 1%.

Question: And the IC50 (MCF7)?
Answer: The IC50 was 650 nM.

Question: And the Activity (KB [26])?
Answer: Its Activity is 0%.

Question: And the IC50 (SW-620)?
Answer: Its IC50 is 90 nM.

Question: And the Activity (KB [27])?
Answer: The Activity was 67%.

Question: What about the Activity (KB [28]) of the same molecule?
Answer: Its Activity is 10.2%.

Question: What about the Activity (KB [29]) of the same molecule?
Answer: The Activity was 61.95%.

Question: Which results are given for `Nc1nc2[nH]c(CC(=O)NCCCC(=O)N[C@@H](CCC(=O)O)C(=O)O)cc2c(=O)[nH]1`?
Answer: IC50 [5]: 0.107 µM; IC50 (MCF7): 3640 nM; IC50 (SW-620): 948 nM
